From US20210213010A1, “TLR7/8 AGONISTS AND LIPOSOME COMPOSITIONS” (Torque Therapeutics, Inc., priority 2018, published 2021)
Entries after “also recorded” stand apart in the source; their conditions may differ.

Key:
[1] = tested on: whole human blood; experiment: IL-6 cytokine expression in stimulated whole human blood (ELISA); type: cell-based
Protocol: (§1) This example describes the general procedure used to assess the level of cytokine IL-6 and IL-12p40 expressions upon stimuli of whole human blood with small molecules or small molecules in liposomal formulations F1 and F2. 10 mM DMSO solutions of the small molecules were diluted in RPMI media (RPMI-1640, Sigma Aldrich) with 1% penicillin/streptomycin (p/s). […], of each dilution was transferred to Nunc™ 96-Well Polystyrene Conical Bottom MicroWell™ Plates in duplicates. Blood was drawn from two human donors, diluted in RPMI with 1% p/s and added to each well to reach final concentrations of 10 μM, 1 μM, and 0.1 μM of the small molecules. The plates were incubated at 37° C. in a cell incubator for 24h. The plates were then spun down in a plate centrifuge with 3200 revolutions per minute (rpm) for 10 min before 50 uL of the supernatant was transferred to new 96-well plates. The supernatant samples were subsequently stored at −80° C. until the day of cytokine measurements.
(§2) The level of cytokine expression was measured using either an IL-6 ELISA Kit (RnDSystems, cat #DY206) for IL-6, or an IL-12p40 ELISA Kit (RnDSystems, cat #DY1240) according to the manufacturer's protocols. This general procedure was used to generate the examples 24-33.

[2] = Remote loading efficiency of small molecules into liposomes (PD-10 size exclusion, HPLC); type: physicochemical
Protocol: A solution of the small molecule (modified TLR agonist) was lyophilized in a vial equipped with a magnetic stir bar over night to form a fluffy white powder. This powder was added either formulation F1 or F2 to the wanted drug/lipid ratio. The resulting mixture was stirred at 55° C. or 41° C. for formulation F1 and F2 respectively for 3h, then allowed to cool to rt before the solutions were refrigerated and stored at 4° C.
Remote loading efficiency was determined at 1 h and 3 h by taking out 100 μL of the mixture and applying this and 900 μL buffer (25 mM HEPES, 10 vol % sucrose buffer, pH 7.4) to a PD-10 column size exclusion column. Following, 10×1 mL fractions were collected, and the small molecule compound concentrations in the loading mixture and in the liposome containing fractions were determined on analytical HPLC. Loading efficiency was calculated as percentage of molecules found in liposome containing fractions out of the applied amount. The general procedure for the small molecule remote loading is visualized in FIG. 3. The general concept of remote loading imidazoquinolines in liposomes that are dialyzed against HEPES is visualized in FIG. 4.

[3] = tested on: whole human blood; experiment: IL-12p40 cytokine expression in stimulated whole human blood (ELISA); type: cell-based
Protocol: as §1, §2

[4] = tested on: RAW-Blue cells; experiment: NF-κB induction in RAW-Blue reporter cells (RAW 264.7 macrophages, SEAP); type: cell-based; details: for EC50: RAW-Blue, sigmoidal 4PL fitting, 24 h
Description: This example describes the general procedure used to assess the compounds' potency to induce NF-κB expression in RAW 264.7 macrophages cells that stably express secreted embryonic alkaline phosphatase (SEAP) upon induction of NF-κB. RAW-Blue™ reporter cells are commonly used for quantifying TLR7/8 agonist potencies in reporter cell assays. Conversely, we used RAW-Blue™ cells to evaluate the potencies of the synthesized derivatives, as previously reported^1. ^1 Ryu et al, J. Am. Chem. Soc. (2014), 136, 10823-10825
RAW 264.7 assays were carried out using RAW-Blue™ cells and QUANTI-Blue™ detection solution (Invivogen, Toulouse, France, at. #raw-sp and rep-qbs respectively). The assays carried out according to the protocol from Invivogen. RAW 264.7 macrophages were cultured in DMEM high glucose (4.5 g/L) supplemented with 10% (v/v) FBS, 1% (v/v) P/S, and Normocin™ (100 μg/ml). On the day of the study, the cells were seeded in a 96-well plate (ThermoFisher Scientific, Roskilde, Denmark) with 20 μL TLR7/8 agonist solutions per well at varying concentrations by adding 180 μL cell suspension, made by suspending cells to 0.55×10^6 cells per mL in the prepared cell medium added Zeocin™ (200 μg/ml), leading to a final concentration of 100×10^3 cells per well in triplicates. Cells were incubated with the TLR7/8 agonists, diluted from 10 mM DMSO stocks in PBS, at 37° C. with 5% CO2 for 24 h for SEAP production. 50 μL SEAP containing cell supernatant from each well was added 150 μL QUANTI-Blue™ detection solution and was incubated at 37° C. for 3-6 h. The resulting response was quantified spectrophotometrically at 640 nm and was normalized to the signal from a blank sample (DMSO dilution) run in parallel.
Half maximal effective concentration (EC50) values were determined from sigmoidal 4PL fittings from the resulting dose-response curves in GraphPad Prism.

[5] = remote loaded in formulation F1, HEPES, drug/lipid ratio 0.1
[6] = remote loaded in formulation F2, HEPES, drug/lipid ratio 0.1
[7] = formulation F1, HEPES, drug/lipid ratio 0.10, 1 h
[8] = formulation F1, HEPES, drug/lipid ratio 0.10, 3 h
[9] = formulation F2, HEPES, drug/lipid ratio 0.10, 1 h
[10] = formulation F2, HEPES, drug/lipid ratio 0.10, 3 h
[11] = free small molecule, 10, 1, 0.1 μM, 24 h, two donors

Row | Remote loading efficiency 1 h (%) [2, 7] [%] | Remote loading efficiency 3 h (%) [2, 8] [%] | Remote loading efficiency 1 h (%) [2, 9] [%] | Remote loading efficiency 3 h (%) [2, 10] [%] | EC50 [4] [nM] | SMILES | Expression of IL-6 upon stimulation of whole human blood [1, 5] | Expression of IL-6 upon stimulation of whole human blood [1, 6] | Expression of IL-12p40 upon stimulation of whole human blood [3, 5] | Expression of IL-12p40 upon stimulation of whole human blood [3, 6] | Expression of IL-6 upon stimulation of whole human blood [1, 11] | Expression of IL-12p40 upon stimulation of whole human blood [3, 11] | other results
1 | 72 | 73 | 52 | 60 |  | CCOCc1nc2c(N)nc3ccccc3c2n1CCNC(=O)CN [MK087, 2-amino-N-(2-(4-amino-2-(ethoxymethyl)-1H-imidazo[4,5-c]quinolin-1-yl)ethyl)acetamide] | capable of inducing expression of IL-6 at 10 μM | capable of inducing expression of IL-6 at 10 μM; also recorded: not capable of inducing expression of IL-6 in donor 1 | none of the small molecules Gardiquimod, MK087, MK088, and MK089 were capable of inducing expression of IL-12p40 | not capable of inducing expression of IL-12p40 |  |  | 
2 |  |  |  |  | 120 | CCCCc1nc2c(N)nc3ccccc3c2n1Cc1ccc(CNC(C)=O)cc1 [MK132, N-(4-((4-amino-2-butyl-1H-imidazo[4,5-c]quinolin-1-yl)methyl)benzyl)acetamide] |  |  |  |  |  |  | 
3 |  |  |  |  |  | CCOCc1nc2c(N)nc3ccccc3c2n1CCNC(=O)[C@@H](N)CCSC [MK093, (S)-2-amino-N-(2-(4-amino-2-(ethoxymethyl)-1H-imidazo[4,5-c]quinolin-1-yl)ethyl)-4-(methylthio)butanamide] |  |  |  |  | induced expression of IL-6 at 10 μM in donor 2 | induced expression of IL-12p40 at 10 μM in donor 2 | 
4 |  |  |  |  |  | CCOCc1nc2c(N)nc3ccccc3c2n1CCNC(=O)[C@@H](N)CC(C)C [MK091, (S)-2-amino-N-(2-(4-amino-2-(ethoxymethyl)-1H-imidazo[4,5-c]quinolin-1-yl)ethyl)-4-methylpentanamide] |  |  |  |  | induced expression of IL-6 at 10 μM in donor 2 | induced expression of IL-12p40 at 10 μM in donor 2 | 
5 |  |  |  |  | 130 | CCCCc1nc2c(N)nc3ccccc3c2n1Cc1ccc(CNC(=O)[C@@H](N)Cc2ccc(O)cc2)cc1 [MK141, (S)-2-amino-N-(4-((4-amino-2-butyl-1H-imidazo[4,5-c]quinolin-1-yl)methyl)benzyl)-3-(4-hydroxyphenyl)propanamide] |  |  |  |  |  |  | Remote loading efficiency 1 h (%) ([2]; formulation F3, drug/lipid ratio 0.10, 1 h, mean (SD), n = 2): 83.8 (3.0) %; Remote loading efficiency 3 h (%) ([2]; formulation F3, drug/lipid ratio 0.10, 3 h, mean (SD), n = 2): 81.2 (2.1) %
6 | 122 | 128 | 100 | 104 |  | CCOCc1nc2c(N)nc3ccccc3c2n1CCNC(=O)[C@@H](N)C(C)C [MK089, (S)-2-amino-N-(2-(4-amino-2-(ethoxymethyl)-1H-imidazo[4,5-c]quinolin-1-yl)ethyl)-3-methylbutanamide] | No induction of IL-6 expression | capable of inducing expression of IL-6 at 10 μM; also recorded: capable of inducing expression of IL-6 in both donors | none of the small molecules Gardiquimod, MK087, MK088, and MK089 were capable of inducing expression of IL-12p40 | capable of inducing expression of IL-12p40 in one donor at 10 μM | induced expression of IL-6 at 10 μM in donor 2 |  | 
7 |  |  |  |  | 50 | CCCCc1nc2c(N)nc3ccccc3c2n1Cc1ccc(CNC(=O)CC)cc1 [MK148, N-(4-((4-amino-2-butyl-1H-imidazo[4,5-c]quinolin-1-yl)methyl)benzyl)propionamide] |  |  |  |  |  |  | Potency in the RAW-Blue cell assay ([4]; compared with R848): greater potencies than R848
8 | 110 | 115 | 95 | 95 |  | CCOCc1nc2c(N)nc3ccccc3c2n1CCNC(=O)[C@H](C)N [MK088, (S)-2-amino-N-(2-(4-amino-2-(ethoxymethyl)-1H-imidazo[4,5-c]quinolin-1-yl)ethyl)propanamide] | capable of inducing expression of IL-6 at 10 μM | capable of inducing expression of IL-6 at 10 μM; also recorded: not capable of inducing expression of IL-6 in donor 1 | none of the small molecules Gardiquimod, MK087, MK088, and MK089 were capable of inducing expression of IL-12p40 | capable of inducing expression of IL-12p40 in one donor at 10 μM | induced expression of IL-6 at 10 μM in donor 2 | induced expression of IL-12p40 at 10 μM in donor 2; also recorded: the most potent inducer of IL-12p40 | 
9 |  |  |  |  |  | CCOCc1nc2c(N)nc3ccccc3c2n1CCNC(=O)C(C)(C)N [MK090, 2-amino-N-(2-(4-amino-2-(ethoxymethyl)-1H-imidazo[4,5-c]quinolin-1-yl)ethyl)-2-methylpropanamide] |  |  |  |  | induced expression of IL-6 at 10 μM in donor 2; also recorded: able to induce expression of IL-6 in both donors; also recorded: the most potent inducer of IL-6 | induced expression of IL-12p40 at 10 μM in donor 2 | 
